Data from ChEMBL document CHEMBL1157076, “Tetracenoquinocin and 5-iminoaranciamycin from a sponge-derived Streptomyces sp. Sp080513GE-26” (J Nat Prod, 2010).
pIC50: −log10 of the molar value.

What was measured:
[1] = tested on: HeLa; assay: Cytotoxicity against human HeLa cells after 48 hrs by WST8 assay; format: functional, cell-based
[2] = tested on: HL-60; assay: Cytotoxicity against human HL60 cells after 48 hrs by WST8 assay; format: functional, cell-based; settings: HL-60, 48 h

Row | SMILES | pIC50 [1] | pIC50 [2]
1 | CO[C@H]1[C@H](O[C@@H]2c3c(cc4c(c3O)C(=N)c3c(O)cccc3C4=O)C(=O)[C@@](C)(O)[C@H]2OC)O[C@@H](C)[C@H](O)[C@H]1O | < 3.70 | < 3.70
2 | CO[C@H]1[C@H](O[C@@H]2c3c(cc4c(c3O)C(=O)c3c(O)cccc3C4=O)C(=O)[C@@](C)(O)[C@H]2OC)O[C@@H](C)[C@H](O)[C@H]1O [ARANCIAMYCIN] | 5.57 | 5.39
3 | CO[C@H]1[C@H](Oc2cc(C)cc3cc4c(c(O)c23)C(=O)c2c(O)cccc2C4=O)O[C@@H](C)[C@H](O)[C@H]1O [TETRACENOQUINOCIN] | 3.92 | 3.68
